The test system of this assay is insulin. Put plainly: electrochemical impedance spectroscopy. Format: binding. Conditions: two experimental cases and one scrambled sequence; different insulin concentrations; PBS.

These results are taken from PMC11411520 (ACS Omega, 2024).

Entries after “also recorded” stand apart in the source; their conditions may differ. No end group written: not given here. *: point of attachment. Biotin = O=C1N[C@H]2[C@H](CS[C@H]2CCCCC(=O)*)N1

Consider “EACVESGGGENLYFQK(Biotin) [scrambled sequence]”, for which the “raw phase change (Zphz) across different frequencies” value is recorded as “The largest change across different frequencies is observed in the scrambled sequence negative control compared to the other two experimental cases; also recorded: The largest change across different frequencies was observed in (C)”.
